Where two headings read alike, the source gives them in different places.
Tests used:
Type in all cases: in vivo
Erysiphe cichoracaerum = experiment: Cucumber Powdery Mildew greenhouse one-day protectant test; conditions: 24 h, read-out: ERYSCI percent control rating
Colletotricum lagenarium = experiment: Cucumber Anthracnose greenhouse one-day protectant test; conditions: Cucumis sativus, 24 h, read-out: COLLLA percent control rating
Phytophthora infestans = experiment: whole plant or invertebrate; conditions: in Solanum lycopersicum, 24 h
Leptosphaeria nodorum = experiment: Glume Blotch of Wheat greenhouse one-day protectant test; conditions: Parastagonospora nodorum, 24 h, read-out: LEPTNO percent control rating
Pyricularia oryzae = experiment: whole plant or invertebrate; conditions: 24 h, read-out: PYRIOR percent control rating
[1] = system: Puccinia recondita tritici; experiment: Leaf Rust of Wheat greenhouse one-day protectant test; conditions: 24 h, read-out: PUCCRT percent control rating
[2] = cucumber plants, one-day protectant test, 200 ppm application rate
[3] = read-out: PHYTIN percent control rating, tomato plants, one-day protectant test, 200 ppm application rate
[4] = wheat plants, one-day protectant test, 200 ppm application rate

Row | Structure (SMILES) | pest or weed control at 200 ppm (Erysiphe cichoracaerum; [2]) [%] | pest or weed control at 200 ppm (Colletotricum lagenarium; [2]) [%] | pest or weed control at 200 ppm (Phytophthora infestans; [3]) [%] | pest or weed control at 200 ppm (Leptosphaeria nodorum; [4]) [%] | pest or weed control at 200 ppm (Pyricularia oryzae) [%] | pest or weed control at 200 ppm [1, 4] [%] | pest or weed control at 200 ppm (Erysiphe cichoracaerum) [%] | pest or weed control at 200 ppm (Colletotricum lagenarium) [%] | pest or weed control at 200 ppm (Phytophthora infestans; read-out: PHYTIN percent control rating) [%] | pest or weed control at 200 ppm (Leptosphaeria nodorum) [%] | pest or weed control at 200 ppm [1] [%]
1 | CS(=O)(=O)OCCN1N=C(c2ccc(Cl)nc2)NCC1=O [Compound 1] | 0 to 49 | 0 to 49 | 0 to 49 | 0 to 49 | 50 to 79 | 0 to 49 | – | – | – | – | –
2 | Cc1cc(C)cc(C2=NN(CCO)C(=O)CN2)c1 [Compound 2] | 0 to 49 | 0 to 49 | 0 to 49 | 0 to 49 | 80 to 100 | 0 to 49 | – | – | – | – | –
3 | Cc1cc(C)cc(C2=NN(CCOC(=O)Nc3ccc4c(c3)OCO4)C(=O)CN2)c1 [Compound 3] | 0 to 49 | 50 to 79 | 0 to 49 | 50 to 79 | 80 to 100 | 80 to 100 | – | – | – | – | –
4 | O=C1CNC(c2ccccc2)=NN1CCO [Compound 4] | 0 to 49 | 0 to 49 | 0 to 49 | 0 to 49 | 0 to 49 | 0 to 49 | – | – | – | – | –
5 | Cc1cc(C)cc(C2=NN(Cc3ccccn3)C(=O)CN2)c1 [Compound 5] | 0 to 49 | 50 to 79 | 0 to 49 | 80 to 100 | 0 to 49 | 0 to 49 | – | – | – | – | –
6 | O=C1CNC(c2cc(Cl)cc(Cl)c2)=NN1Cc1ccccn1 [Compound 6] | 0 to 49 | 50 to 79 | 0 to 49 | 80 to 100 | 80 to 100 | 80 to 100 | – | – | – | – | –
7 | O=C1CNC(c2cc(Cl)cc(Cl)c2)=NN1CCO [Compound 7] | 0 to 49 | 0 to 49 | 0 to 49 | 50 to 79 | 0 to 49 | 50 to 79 | – | – | – | – | –
8 | O=C1CNC(c2cc(Cl)cc(Cl)c2)=NN1CO [Compound 8] | 0 to 49 | 0 to 49 | 0 to 49 | 50 to 79 | 0 to 49 | 0 to 49 | – | – | – | – | –
9 | O=C1CNC(c2ccc(Cl)c(Cl)c2)=NN1CO [Compound 9] | 0 to 49 | 0 to 49 | 0 to 49 | 80 to 100 | 0 to 49 | 50 to 79 | – | – | – | – | –
10 | O=C1CNC(c2ccc(Cl)c(Cl)c2)=NN1C(=O)C(F)(F)F [Compound 10] | 0 to 49 | 50 to 79 | 0 to 49 | 50 to 79 | 80 to 100 | 0 to 49 | – | – | – | – | –
11 | O=C1CNC(c2cc(Cl)cc(Cl)c2)=NN1C(=O)C(F)(F)F [Compound 11] | 0 to 49 | 50 to 79 | 0 to 49 | 50 to 79 | 50 to 79 | 0 to 49 | – | – | – | – | –
12 | CC(=O)OCN1N=C(c2ccc(Cl)c(Cl)c2)NCC1=O [Compound 14] | 0 to 49 | 0 to 49 | 0 to 49 | 0 to 49 | 0 to 49 | 50 to 79 | – | – | – | – | –
13 | O=C1CNC(c2cc(Cl)cc(Cl)c2)=NN1CN1CCOCC1 [Compound 15] | 0 to 49 | 0 to 49 | 0 to 49 | 50 to 79 | 80 to 100 | 0 to 49 | – | – | – | – | –
14 | CCCCN1N=C(c2ccc(Oc3cccnc3)cc2)NCC1=O [Compound 16] | 0 to 49 | 0 to 49 | 0 to 49 | 0 to 49 | 0 to 49 | 80 to 100 | – | – | – | – | –
15 | O=C1CNC(c2cccc(OCc3ccccc3)c2)=NN1CC(F)(F)F [Compound 17] | 0 to 49 | 80 to 100 | 0 to 49 | 80 to 100 | 80 to 100 | 80 to 100 | – | – | – | – | –
16 | N#CCCN1N=C(c2cccc(OCc3ccccc3)c2)NCC1=O [Compound 18] | 0 to 49 | 50 to 79 | 0 to 49 | 50 to 79 | 50 to 79 | 80 to 100 | – | – | – | – | –

Row | Structure (SMILES) | pest or weed control at 200 ppm (Erysiphe cichoracaerum; [2]) [%] | pest or weed control at 200 ppm (Colletotricum lagenarium; [2]) [%] | pest or weed control at 200 ppm (Phytophthora infestans; [3]) [%] | pest or weed control at 200 ppm (Leptosphaeria nodorum; [4]) [%] | pest or weed control at 200 ppm (Pyricularia oryzae) [%] | pest or weed control at 200 ppm [1, 4] [%] | pest or weed control at 200 ppm (Erysiphe cichoracaerum) [%] | pest or weed control at 200 ppm (Colletotricum lagenarium) [%] | pest or weed control at 200 ppm (Phytophthora infestans; read-out: PHYTIN percent control rating) [%] | pest or weed control at 200 ppm (Leptosphaeria nodorum) [%] | pest or weed control at 200 ppm [1] [%]
17 | O=C1CNC(c2cccc(OCc3ccccc3)c2)=NN1CCF [Compound 19] | 0 to 49 | 0 to 49 | 0 to 49 | 50 to 79 | 50 to 79 | 80 to 100 | – | – | – | – | –
18 | O=C1CNC(c2cccc(OCc3ccccc3)c2)=NN1Cc1ccccc1 [Compound 20] | 0 to 49 | 0 to 49 | 0 to 49 | 50 to 79 | 80 to 100 | 80 to 100 | – | – | – | – | –
19 | O=C1CNC(c2cccc(OCc3ccccc3)c2)=NN1c1cccc(Br)c1 [Compound 21] | 0 to 49 | 0 to 49 | 0 to 49 | 50 to 79 | 80 to 100 | 50 to 79 | – | – | – | – | –
20 | O=C1CNC(c2cccc(O)c2)=NN1CC(F)(F)F [Compound 22] | 0 to 49 | 0 to 49 | 0 to 49 | 0 to 49 | 0 to 49 | 50 to 79 | – | – | – | – | –
21 | O=C1CNC(c2cccc(OS(=O)(=O)C(F)(F)F)c2)=NN1CC(F)(F)F [Compound 23] | 0 to 49 | 0 to 49 | 0 to 49 | 50 to 79 | 80 to 100 | 50 to 79 | – | – | – | – | –
22 | O=C1CNC(c2cccc(Oc3cc(C(F)(F)F)cc(C(F)(F)F)n3)c2)=NN1CC(F)(F)F [Compound 24] | 0 to 49 | 0 to 49 | 0 to 49 | 80 to 100 | 0 to 49 | 80 to 100 | – | – | – | – | –
23 | O=C(Nc1c(Cl)cccc1Cl)Oc1cccc(C2=NN(CC(F)(F)F)C(=O)CN2)c1 [Compound 25] | – | – | – | – | 0 to 49 | – | 0 to 49 | 0 to 49 | 0 to 49 | 0 to 49 | 0 to 49
24 | O=C1CNC(c2cc(C=Cc3ccccc3)cc(-c3ccsc3)c2)=NN1CC(F)(F)F [Compound 26] | 0 to 49 | 0 to 49 | 0 to 49 | 50 to 79 | 0 to 49 | 0 to 49 | – | – | – | – | –
25 | O=C1CNC(c2cccc(Oc3nc4ccc(Cl)cc4s3)c2)=NN1CC(F)(F)F [Compound 27] | 0 to 49 | 50 to 79 | 0 to 49 | 80 to 100 | 80 to 100 | 80 to 100 | – | – | – | – | –
26 | O=C1CNC(c2cccc(Oc3nnnn3-c3ccccc3)c2)=NN1CC(F)(F)F [Compound 28] | 0 to 49 | 0 to 49 | 0 to 49 | 50 to 79 | 50 to 79 | 0 to 49 | – | – | – | – | –
27 | O=C1CNC(c2cccc(-c3ccc(Cl)s3)c2)=NN1CC(F)(F)F [Compound 29] | 0 to 49 | 0 to 49 | 0 to 49 | 80 to 100 | 50 to 79 | 80 to 100 | – | – | – | – | –
28 | O=C1CNC(c2cccc(-c3ccc(Oc4ccccc4)cc3)c2)=NN1CC(F)(F)F [Compound 30] | 0 to 49 | 0 to 49 | 0 to 49 | 50 to 79 | 0 to 49 | 50 to 79 | – | – | – | – | –
29 | O=C1CNC(c2cccc(Oc3ncccn3)c2)=NN1CC(F)(F)F [Compound 31] | 0 to 49 | 0 to 49 | 0 to 49 | 50 to 79 | 0 to 49 | 0 to 49 | – | – | – | – | –
30 | CNc1cc(F)nc(Oc2cccc(C3=NN(CC(F)(F)F)C(=O)CN3)c2)n1 [Compound 32] | 0 to 49 | 0 to 49 | 0 to 49 | 80 to 100 | 0 to 49 | 50 to 79 | – | – | – | – | –
31 | O=C1C(SC2CCCCC2)NC(c2ccc(F)c(-c3ccccc3)c2)=NN1CC(F)(F)F (stereo not shown) [Compound 48] | 0 to 49 | – | – | 80 to 100 | 80 to 100 | 80 to 100 | – | – | – | – | –

From patent US7473669B2, “Substituted 4,5-dihydro-1,2,4-triazin-6-ones, 1,2,4-triazin-6-ones, and their use as fungicides” (priority 2005, dated 2009)
